Test results taken from patent publication US20250073210A1, “Use of Ergothioneine for Enhancing Glutathione Level” (priority 2022, published 2025).

How the values were obtained:
total GSH [1] = experiment: Example 2: oral L-ergothioneine on plasma glutathione in healthy humans; type: in vivo, human; settings: Example 2, 200 mg orally once daily, single subject
total GSH [2] = experiment: Example 3: oral L-ergothioneine 5, 15, 30 mg/day on plasma glutathione in healthy humans; type: in vivo, human
Excerpt: A Baseline will be established looking at Total and Percent Reduced Glutathione. These same values will be measured at the end of the four weeks. Subjects will be contacted once a week while in the study for an assessment of compliance with intervention.
Study Population: Male and female subjects 25-75 years of age Number of Subjects: 5, assigned as follows: 1 subject will receive the GSH administered orally once weekly for 4 weeks; 1 subject will receive S-acetyl-glutathione supplemented orally once daily for 4 weeks; 3 subjects will receive 5, 15, 30 mg L-ergothioneine supplemented orally once daily for 4 weeks, respectively.
• 1. Individuals must be between 25-70 years of age with no known medical conditions that, in the investigator's opinion, may interfere with study participation. • 2. Subjects must present with mild to moderate signs oxidative stress or inflammation. • 3. Willingness to cooperate and participate by following Study requirements. • 4. Individuals must sign informed consent, photo release consent and confidentiality agreement.
• 1. […] Individuals currently taking certain medications or any dietary supplements, which in the opinion of the investigator might interfere with the study. This would include but not be limited to routine high dosage use of anti-inflammatory drugs (aspirin, ibuprofen, corticosteroids) immunosuppressive drugs or antihistamine medications), and insulin, anti-hypertensive drugs, and especially antioxidants. • 3. Individuals with uncontrolled metabolic diseases such as diabetes (Type I and II), hypertension, hyperthyroidism or hypothyroidism, severe chronic asthma, immunological disorders such as HIV positive, AIDS and systemic lupus erythematosus or mastectomy for cancer involving removal of lymph nodes. • 4. Women known to be pregnant, nursing or planning to become pregnant. • 5. Individuals participating in other clinical studies evaluating antioxidants or anti-inflammatory interventions.

[3] = tested on: body stores of glutathione; settings: oral 250 or 1000 mg/day, cited from earlier work

Row | SMILES | % change from baseline in total GSH (total GSH [1]) [%] | Total GSH at Day 30 (total GSH [1]; baseline 727 μM) [µM] | Total GSH at Day 30 (total GSH [2]; Example 3, 200 mg orally once daily, single subject, baseline 733 μM) [µM] | Total GSH at Day 30 (total GSH [2]; Example 3, second sentence on a single subject with comparator intervention (see doubts)) [µM] | % change from baseline in total GSH (total GSH [2]; Example 3, single subject) [%] | Natural killer cell cytotoxicity ([3]; at six months) | Oxidized (GSSG) to reduced (GSH) glutathione ratio in whole blood ([3]; at six months) | Body stores of glutathione ([3]; six months, 54 non-smoking adults) | % change from baseline in total GSH (total GSH [2]; Example 3, 1400 mg orally once weekly for 4 weeks, single subject, baseline 653 μM) [%]
1 | CC(=O)SC[C@H](NC(=O)CC[C@H](N)C(=O)O)C(=O)NCC(=O)O [SAG, S-acetyl-glutathione] | −25 | 547 | 461 | 503 | −37 | – | – | – | –
2 | N[C@@H](CCC(=O)N[C@@H](CS)C(=O)NCC(=O)O)C(=O)O [glutathione] | – | – | – | – | – | favorable increases | improvement | significant increases | −23
